Measured values reported in US10597388B2, “Pyridazinone herbicides” (FMC CORPORATION, priority 2014, dated 2020).

How the values were obtained:
Type in all cases: in vivo
[1] = test system: chickweed (common chickweed, Stellaria media); assay: Test C greenhouse herbicide test, postemergence
Outline: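 Steps: pot plants in peat-based medium; spray postemergence at 1- to 4-leaf stage; hold in greenhouse 13 to 15 d; score visually against controls from 0 (no effect) to 100 (complete control).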

[2] = test system: rice (Oryza sativa); assay: Test B flooded paddy test; conditions: 250 g ai/ha, Flood; visual rating on scale of 0 to 100 where 0 is no effect and 100 is complete control; 13 to 15 d after treatment
Outline: (§1)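 Plants grown to the 2-leaf stage. At treatment, pots were flooded to 3 cm above the soil, compound was applied directly to the paddy water, and that depth was held throughout. After 13 to 15 d in the greenhouse, response was rated visually against controls on a 0 (no effect) to 100 (complete control) scale.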

[3] = test system: sedge, umbrella (small-flower umbrella sedge, Cyperus difformis); assay: Test B flooded paddy test; conditions: 250 g ai/ha, Flood; visual rating on scale of 0 to 100 where 0 is no effect and 100 is complete control; 13 to 15 d after treatment
Outline: as §1

[4] = test system: barnyardgrass (Echinochloa crus-galli); assay: Test B flooded paddy test; conditions: 250 g ai/ha, Flood; visual rating on scale of 0 to 100 where 0 is no effect and 100 is complete control; 13 to 15 d after treatment
Outline: as §1

[5] = test system: ducksalad (Heteranthera limosa); assay: Test B flooded paddy test; conditions: 250 g ai/ha, Flood; visual rating on scale of 0 to 100 where 0 is no effect and 100 is complete control; 13 to 15 d after treatment
Outline: as §1

[6] = test system: ryegrass, Italian (Italian ryegrass, Lolium multiflorum); assay: Test A greenhouse herbicide test, pre- and postemergence
Outline: (§2)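 Seeds in loam–sand blend received a preemergence directed soil spray; plants at 2–10 cm, one- to two-leaf stage, received postemergence sprays. Compounds in a non-phytotoxic solvent with surfactant. After about 10 d in a greenhouse, injury rated visually versus untreated controls on a 0–100 scale (100 = complete control).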

[7] = test system: kochia (Kochia scoparia); assay: as above
Outline: as §2

[8] = test system: wheat (Triticum aestivum); assay: as above; conditions: Postemergence; for Plant response rating, Wheat: 125 g ai/ha, 0 to 100 scale where 0 is no effect and 100 is complete control; for Wheat plant response rating: 500 g ai/ha, 0 to 100 scale, 0 is no effect, 100 is complete control
Outline: as §2

[9] = Postemergence, 31 g ai/ha, 0 to 100 scale (0 no effect, 100 complete control)
[10] = Postemergence, 125 g ai/ha, scale 0 to 100, 0 is no effect, 100 is complete control
[11] = Postemergence, 250 g ai/ha, scale 0 to 100, 0 no effect, 100 complete control, 13 to 15 d
[12] = postemergence, 62 g ai/ha, scale 0 to 100, 0 no effect, 100 complete control
[13] = Postemergence, 125 g ai/ha, 0 to 100 scale where 0 is no effect and 100 is complete control
[14] = Postemergence, 500 g ai/ha, 0 to 100 scale, 0 is no effect, 100 is complete control
[15] = Preemergence, 125 g ai/ha, 0 to 100 scale where 0 is no effect and 100 is complete control
[16] = Preemergence, 500 g ai/ha, 0 to 100 scale, 0 no effect, 100 complete control
[17] = Postemergence, 125 g ai/ha, visual rating after approx. 10 d, 0 to 100 scale (0 no effect, 100 complete control)

Row | Structure (SMILES) | Chickweed plant response rating [1, 9] | Plant response rating, Chickweed [1, 10] | Plant response rating, Chickweed [1, 11] | Chickweed plant response rating [1, 12] | Plant response rating, Rice [2] | Plant response rating, Sedge, Umbrella [3] | Plant response rating, Barnyardgrass [4] | Plant response rating, Ducksalad [5] | Plant response rating, Ryegrass, Italian [6, 13] | Ryegrass, Italian plant response rating [6, 14] | Ryegrass, Italian plant response rating [6, 15] | Plant response rating, Ryegrass, Italian [6, 16] | Plant response rating, Kochia [7, 17] | Kochia plant response rating [7, 14] | Kochia plant response rating [7, 15] | Plant response rating, Kochia [7, 16] | Plant response rating, Wheat [8] | Wheat plant response rating [8] | Plant response rating, Kochia [7, 13]
1 | CCC(=O)Oc1c(C)nn(C)c(=O)c1-c1c(C)sc2c(C)cc(C)cc12 [Compound 28] | 95 | 98 | 95 | 95 | 40 | 95 | 60 | 80 | 90 | 100 | 100 | 100 | 70 | 90 | 50 | 90 | 0 | 0 | 
2 | COc1nn(C)c(=O)c(-c2c(C)sc3ccccc23)c1O [Compound 33] | 85 | 90 | 95 | 90 | 0 | 0 | 0 | 0 | 50 | 70 | 20 | 60 | 90 | 100 | 30 | 80 | 0 | 0 | 
3 | COc1nn(C)c(=O)c(-c2c(C)ccc3ccccc23)c1OC(=O)OC(C)C [Compound 36] | 80 | 95 | 95 | 95 | 20 | 70 | 0 | 30 | 70 | 80 | 70 | 70 | 90 | 100 | 10 | 80 | 20 | 30 | 
4 | CCC(=O)Oc1c(C)nn(C)c(=O)c1-c1c(C)sc2ccc(C)cc12 [Compound 42] | 90 | 100 | 100 | 100 | 0 | 0 | 0 | 0 | 100 | 100 | 100 | 100 |  | 100 | 80 | 100 | 0 | 20 | 100
5 | Cc1cc(C)c2ccccc2c1-c1c(O)cnn(C)c1=O [Compound 51] | 50 | 70 | 90 | 55 | 0 | 0 | 0 | 0 | 60 | 90 | 50 | 90 |  | 90 | 0 | 30 | 0 | 0 | 70
